Laboratory results: patent publication US10472381B2, “Sialic acid derivatives” (Reinhard Brossmer, priority 2014, dated 2019)

These compounds were tested against T1, CD22 (Homo sapiens, UniProt P20273) (assay: ELISA-based inhibition assay: inhibition of binding of soluble CD22 to immobilized IgM). Details: Table I; relative to reference BPCNeu5Ac (rIP = 1).
T1 construct: The soluble CD22 protein was expressed in the CHO-Lec1 cell line; made in house; host or cells: CHO-Lec1
T1 sequence (P20273 20-687 limits assumed): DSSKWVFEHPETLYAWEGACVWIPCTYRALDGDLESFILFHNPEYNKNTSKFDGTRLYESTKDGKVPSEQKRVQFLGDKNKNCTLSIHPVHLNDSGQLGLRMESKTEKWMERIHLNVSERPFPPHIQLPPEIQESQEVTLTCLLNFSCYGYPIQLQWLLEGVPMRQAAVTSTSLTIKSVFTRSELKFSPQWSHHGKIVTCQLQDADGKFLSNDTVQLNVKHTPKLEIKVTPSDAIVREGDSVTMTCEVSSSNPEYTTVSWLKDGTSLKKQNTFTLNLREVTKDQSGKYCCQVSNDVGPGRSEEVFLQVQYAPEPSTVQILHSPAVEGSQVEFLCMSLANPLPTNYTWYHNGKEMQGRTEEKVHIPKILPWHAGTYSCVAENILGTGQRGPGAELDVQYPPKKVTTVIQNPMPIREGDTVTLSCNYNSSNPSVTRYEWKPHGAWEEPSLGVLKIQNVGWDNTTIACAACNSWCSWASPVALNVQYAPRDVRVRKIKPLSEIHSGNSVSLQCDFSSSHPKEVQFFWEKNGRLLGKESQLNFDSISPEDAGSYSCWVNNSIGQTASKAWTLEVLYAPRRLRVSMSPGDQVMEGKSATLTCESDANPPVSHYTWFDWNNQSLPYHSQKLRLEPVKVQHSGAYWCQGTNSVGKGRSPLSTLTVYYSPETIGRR
Protocol: The biological activity of the substances was determined in an ELISA-based inhibition assay as described in “Eur. J. Immunol. 2012, 42, 2792-2802”. The sialic acid derivatives of the formula (I) inhibit the binding of soluble CD22 to immobilized IgM in proportion to their affinity for CD22. The soluble CD22 protein was expressed in the CHO-Lec1 cell line and isolated as described by “Eur. J. Immunol. 2012, 42, 2792-2802”. […] The increase in affinity is reported as rIP (relative inhibitory affinity).

| Structure (SMILES) | rIP (relative inhibitory potency) |
| --- | --- |
| CO[C@]1(C(=O)[O-])C[C@H](O)[C@@H](NC(C)=O)[C@H]([C@H](O)[C@H](O)CNC(=O)c2ccc(-c3ccccc3)cc2)O1.[Na+] [BPC Neu5 Ac, reference compound] | 1 |
| CC(=O)N[C@H]1[C@H]([C@H](O)[C@H](O)CNC(=O)c2ccc(-c3ccccc3)cc2)O[C@@](OCCCCCC(=O)[O-])(C(=O)[O-])C[C@@H]1NS(=O)(=O)[O-].[Na+].[Na+].[Na+] [Compound 15] | 1920 |
| CCC(=O)N[C@H]1C[C@](OCCCCCC(=O)[O-])(C(=O)[O-])O[C@@H]([C@H](O)[C@H](O)CNC(=O)c2ccc(-c3ccccc3)cc2)[C@@H]1NC(C)=O.[Na+].[Na+] [Compound 17] | 502 |
| CC(=O)N[C@H]1[C@H]([C@H](O)[C@H](O)CNC(=O)c2ccc(-c3ccccc3)cc2)O[C@@](OCCCSCCC(=O)[O-])(C(=O)[O-])C[C@@H]1OS(=O)(=O)[O-].[Na+].[Na+].[Na+] [Compound 20] | 3130 |
| CC(=O)N[C@H]1[C@H]([C@H](O)[C@H](O)CNC(=O)c2ccc(-c3ccc(F)cc3)cc2)O[C@@](OCCCCCC(=O)[O-])(C(=O)[O-])C[C@@H]1NS(=O)(=O)[O-].[Na+].[Na+].[Na+] [Compound 37] | 405 |

Same assay, conditions: Table I; soluble CD22 binding to immobilized IgM

| Structure (SMILES) | IC50 [nM] |
| --- | --- |
| CO[C@]1(C(=O)[O-])C[C@H](O)[C@@H](NC(C)=O)[C@H]([C@H](O)[C@H](O)CNC(=O)c2ccc(-c3ccccc3)cc2)O1.[Na+] [BPC Neu5 Ac, reference compound] | 6100 |
| CCC(=O)N[C@@H]1[C@@H](NC(C)=O)[C@H]([C@H](O)[C@H](O)CNC(=O)c2ccc(-c3ccccc3)cc2)O[C@@](OCCCCCC(=O)O)(C(=O)O)[C@H]1O [Compound 10] | 6 |
| CC(=O)N[C@@H]1[C@@H](NS(C)(=O)=O)[C@H](O)[C@](OCCCCCC(=O)O)(C(=O)O)O[C@H]1[C@H](O)[C@H](O)CNC(=O)c1ccc(-c2ccccc2)cc1 [Compound 11] | 7.7 |
| CC(=O)N[C@H]1[C@H]([C@H](O)[C@H](O)CNC(=O)c2ccc(-c3ccccc3)cc2)O[C@@](OCCCCCC(=O)[O-])(C(=O)[O-])C[C@@H]1NS(=O)(=O)[O-].[Na+].[Na+].[Na+] [Compound 15] | 3.2 |
| CCC(=O)N[C@H]1C[C@](OCCCCCC(=O)[O-])(C(=O)[O-])O[C@@H]([C@H](O)[C@H](O)CNC(=O)c2ccc(-c3ccccc3)cc2)[C@@H]1NC(C)=O.[Na+].[Na+] [Compound 17] | 12 |
| CC(=O)N[C@H]1[C@H]([C@H](O)[C@H](O)CNC(=O)c2ccc(-c3ccccc3)cc2)O[C@@](OCCCSCCC(=O)[O-])(C(=O)[O-])C[C@@H]1OS(=O)(=O)[O-].[Na+].[Na+].[Na+] [Compound 20] | 2 |
| CC(=O)N[C@H]1[C@H]([C@H](O)[C@H](O)CNC(=O)c2ccc(-c3ccccc3)cc2)O[C@@](OCCCSCCC(=O)O)(C(=O)O)C[C@@H]1NC(=O)OC(C)(C)C [Compound 29] | 85 |
| CC(=O)N[C@H]1[C@H]([C@H](O)[C@H](O)CNC(=O)c2ccc(-c3ccc(F)cc3)cc2)O[C@@](OCCCCCC(=O)[O-])(C(=O)[O-])C[C@@H]1NS(=O)(=O)[O-].[Na+].[Na+].[Na+] [Compound 37] | 15 |

Same assay, conditions: Table II; relative to reference compound 10 co-tested in the same assay (rIP = 1)

| Structure (SMILES) | rIP |
| --- | --- |
| CC(=O)N[C@@H]1[C@@H](NC(C)=O)[C@H](O)[C@](OCCCCCC(=O)[O-])(C(=O)[O-])O[C@H]1[C@H](O)[C@H](O)CNC(=O)c1ccc(-c2ccccc2)cc1.[Na+].[Na+] [Compound 38] | 0.45 |
| CC(=O)N[C@@H]1[C@@H](NC(=O)C(C)C)[C@H](O)[C@](OCCCCCC(=O)[O-])(C(=O)[O-])O[C@H]1[C@H](O)[C@H](O)CNC(=O)c1ccc(-c2ccccc2)cc1.[Na+].[Na+] [Compound 39] | 0.70 |
| CC(=O)N[C@@H]1[C@@H](NC(=O)C(C)(C)C)[C@H](O)[C@](OCCCCCC(=O)[O-])(C(=O)[O-])O[C@H]1[C@H](O)[C@H](O)CNC(=O)c1ccc(-c2ccccc2)cc1.[Na+].[Na+] [Compound 40] | 0.38 |
| CC(=O)N[C@@H]1[C@@H](NC(=O)CCl)[C@H](O)[C@](OCCCCCC(=O)[O-])(C(=O)[O-])O[C@H]1[C@H](O)[C@H](O)CNC(=O)c1ccc(-c2ccccc2)cc1.[Na+].[Na+] [Compound 41] | 0.37 |
| CCCCC(=O)N[C@@H]1[C@@H](NC(C)=O)[C@H]([C@H](O)[C@H](O)CNC(=O)c2ccc(-c3ccccc3)cc2)O[C@@](OCCCCCC(=O)[O-])(C(=O)[O-])[C@H]1O.[Na+].[Na+] [Compound 42] | 1.22 |
| CC(=O)N[C@@H]1[C@@H](NC(=O)CF)[C@H](O)[C@](OCCCCCC(=O)[O-])(C(=O)[O-])O[C@H]1[C@H](O)[C@H](O)CNC(=O)c1ccc(-c2ccccc2)cc1.[Na+].[Na+] [Compound 43] | 0.25 |
| CC(=O)N[C@@H]1[C@@H](NC(=O)CO)[C@H](O)[C@](OCCCCCC(=O)[O-])(C(=O)[O-])O[C@H]1[C@H](O)[C@H](O)CNC(=O)c1ccc(-c2ccccc2)cc1.[Na+].[Na+] [Compound 44] | 0.24 |
| CC(=O)N[C@@H]1[C@@H](NC(=O)C2CC2)[C@H](O)[C@](OCCCCCC(=O)[O-])(C(=O)[O-])O[C@H]1[C@H](O)[C@H](O)CNC(=O)c1ccc(-c2ccccc2)cc1.[Na+].[Na+] [Compound 45] | 0.81 |
| CC(=O)N[C@@H]1[C@@H](NC(=O)CCCl)[C@H](O)[C@](OCCCCCC(=O)[O-])(C(=O)[O-])O[C@H]1[C@H](O)[C@H](O)CNC(=O)c1ccc(-c2ccccc2)cc1.[Na+].[Na+] [Compound 46] | 0.84 |
| CC(=O)N[C@@H]1[C@@H](NC(=O)CN(C)C)[C@H](O)[C@](OCCCCCC(=O)[O-])(C(=O)[O-])O[C@H]1[C@H](O)[C@H](O)CNC(=O)c1ccc(-c2ccccc2)cc1.[Na+].[Na+] [Compound 47] | 0.18 |
| CC(=O)N[C@@H]1[C@@H](NC(=O)c2ccccc2)[C@H](O)[C@](OCCCCCC(=O)[O-])(C(=O)[O-])O[C@H]1[C@H](O)[C@H](O)CNC(=O)c1ccc(-c2ccccc2)cc1.[Na+].[Na+] [Compound 48] | 0.93 |
| COc1cccc(C(=O)N[C@@H]2[C@@H](NC(C)=O)[C@H]([C@H](O)[C@H](O)CNC(=O)c3ccc(-c4ccccc4)cc3)O[C@@](OCCCCCC(=O)[O-])(C(=O)[O-])[C@H]2O)c1.[Na+].[Na+] [Compound 49] | 0.34 |
| CC(=O)N[C@@H]1[C@@H](NC(=O)c2cccc(C)c2)[C@H](O)[C@](OCCCCCC(=O)[O-])(C(=O)[O-])O[C@H]1[C@H](O)[C@H](O)CNC(=O)c1ccc(-c2ccccc2)cc1.[Na+].[Na+] [Compound 50] | 0.51 |
| CC(=O)N[C@@H]1[C@@H](NC(=O)c2ccccc2C)[C@H](O)[C@](OCCCCCC(=O)[O-])(C(=O)[O-])O[C@H]1[C@H](O)[C@H](O)CNC(=O)c1ccc(-c2ccccc2)cc1.[Na+].[Na+] [Compound 51] | 0.13 |
| CC(=O)N[C@@H]1[C@@H](NC(=O)c2ccccc2Cl)[C@H](O)[C@](OCCCCCC(=O)[O-])(C(=O)[O-])O[C@H]1[C@H](O)[C@H](O)CNC(=O)c1ccc(-c2ccccc2)cc1.[Na+].[Na+] [Compound 52] | 0.12 |

Same assay, conditions: Table III; relative to reference compound 17 co-tested in the same assay (rIP = 1)

| Structure (SMILES) | rIP |
| --- | --- |
| CCC(=O)N[C@H]1C[C@](OCCCCCC(=O)[O-])(C(=O)[O-])O[C@@H]([C@H](O)[C@H](O)CNC(=O)c2ccc(-c3ccccc3)cc2)[C@@H]1NC(C)=O.[Na+].[Na+] [Compound 17] | 1 |
| CC(=O)N[C@H]1[C@H]([C@H](O)[C@H](O)CNC(=O)c2ccc(-c3ccccc3)cc2)O[C@@](OCCCCCC(=O)[O-])(C(=O)[O-])C[C@@H]1NC(=O)c1ccccc1.[Na+].[Na+] [Compound 53] | 1.1 |
| CC(=O)N[C@H]1[C@H]([C@H](O)[C@H](O)CNC(=O)c2ccc(-c3ccccc3)cc2)O[C@@](OCCCCCC(=O)[O-])(C(=O)[O-])C[C@@H]1NC(=O)c1c(F)cccc1F.[Na+].[Na+] [Compound 54] | 0.75 |
| CC(=O)N[C@H]1[C@H]([C@H](O)[C@H](O)CNC(=O)c2ccc(-c3ccccc3)cc2)O[C@@](OCCCCCC(=O)[O-])(C(=O)[O-])C[C@@H]1NC(=O)c1cnccn1.[Na+].[Na+] [Compound 55] | 2.7 |
| CC(=O)N[C@H]1[C@H]([C@H](O)[C@H](O)CNC(=O)c2ccc(-c3ccccc3)cc2)O[C@@](OCCCCCC(=O)[O-])(C(=O)[O-])C[C@@H]1NC(=O)c1cccs1.[Na+].[Na+] [Compound 56] | 3.6 |
| CC(=O)N[C@H]1[C@H]([C@H](O)[C@H](O)CNC(=O)c2ccc(-c3ccccc3)cc2)O[C@@](OCCCCCC(=O)[O-])(C(=O)[O-])C[C@@H]1NC(=O)c1ccco1.[Na+].[Na+] [Compound 57] | 6.1 |
| CC(=O)N[C@H]1[C@H]([C@H](O)[C@H](O)CNC(=O)c2ccc(-c3ccccc3)cc2)O[C@@](OCCCCCC(=O)[O-])(C(=O)[O-])C[C@@H]1NC(=O)CC1NC(=O)NC1=O.[Na+].[Na+] (stereo partly shown) [Compound 58] | 3.4 |
| CC(=O)N[C@H]1[C@H]([C@H](O)[C@H](O)CNC(=O)c2ccc(-c3ccccc3)cc2)O[C@@](OCCCCCC(=O)[O-])(C(=O)[O-])C[C@@H]1NC(=O)c1ccc(C)cc1.[Na+].[Na+] [Compound 59] | 0.24 |
| CC(=O)N[C@H]1[C@H]([C@H](O)[C@H](O)CNC(=O)c2ccc(-c3ccccc3)cc2)O[C@@](OCCCCCC(=O)[O-])(C(=O)[O-])C[C@@H]1NC(=O)c1ccc(F)cc1.[Na+].[Na+] [Compound 60] | 2.1 |
| CC(=O)N[C@H]1[C@H]([C@H](O)[C@H](O)CNC(=O)c2ccc(-c3ccccc3)cc2)O[C@@](OCCCCCC(=O)[O-])(C(=O)[O-])C[C@@H]1NC(=O)c1ccc(Cl)cc1.[Na+].[Na+] [Compound 61] | 3.4 |
| CC(=O)N[C@H]1[C@H]([C@H](O)[C@H](O)CNC(=O)c2ccc(-c3ccccc3)cc2)O[C@@](OCCCCCC(=O)[O-])(C(=O)[O-])C[C@@H]1NC(=O)c1ccc(O)cc1.[Na+].[Na+] [Compound 62] | 1.7 |
| COc1ccc(C(=O)N[C@H]2C[C@](OCCCCCC(=O)[O-])(C(=O)[O-])O[C@@H]([C@H](O)[C@H](O)CNC(=O)c3ccc(-c4ccccc4)cc3)[C@@H]2NC(C)=O)cc1.[Na+].[Na+] [Compound 63] | 0.27 |
